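Each compound was tested at five concentrations against cells in 96-well plates for 48 hours. GI50: concentration for 50% inhibition of growth. TGI is the concentration that stops growth completely.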
How the values were obtained:
Assay in all cases: growth of human tumour cells (NCI), 48 h
[1] = system: K-562 leukemia
[2] = system: SF-268 CNS
[3] = system: SK-MEL-28 melanoma
[4] = system: LOX IMVI melanoma
[5] = system: M14 melanoma
[6] = system: UACC-257 melanoma
[7] = system: DU-145 prostate
[8] = system: SF-539 CNS
[9] = system: HL-60(TB) leukemia
[10] = system: HCT-116 colon

SMILES	GI50 [1] [µM]	TGI [1] [µM]	GI50 [2] [µM]	TGI [2] [µM]	GI50 [3] [µM]	TGI [3] [µM]	GI50 [4] [µM]	TGI [4] [µM]	GI50 [5] [µM]	TGI [5] [µM]	GI50 [6] [µM]	TGI [6] [µM]	GI50 [7] [µM]	TGI [7] [µM]	GI50 [8] [µM]	TGI [8] [µM]	GI50 [9] [µM]	TGI [9] [µM]	GI50 [10] [µM]	TGI [10] [µM]
Cc1nn(-c2ccc(Cl)cc2)c2nc3c(nc12)C(=O)c1ccccc1-3	> 100	> 100	> 100	> 100	> 100	> 100	> 100	> 100	> 100	> 100	> 100	> 100	> 100	> 100	> 100	> 100	> 100	> 100	–	–
Nc1nc(/C=C\c2ccc([N+](=O)[O-])s2)nc(N2CCCC2)n1	1.83	8.32	2.37	13.6	9.33	23.6	0.198	2.41	3.72	17.1	4.39	15.6	2.47	16.4	8.24	30.4	5.39	25.3	1.1	4.68
CNCC#Cc1c(F)ccc2c1/C(=C/c1[nH]ccc1OC)C(=O)N2	0.65	3.61	0.279	2.1	0.329	2.88	0.142	2.18	0.181	1.48	0.619	2.91	0.136	2.92	0.243	0.853	0.0722	0.26	0.0827	3.1
C#C[C@]1(O)CCC2C3CCc4cc(O)ccc4C3CC[C@@]21C (some centres undefined)	–	–	5.23	32.7	5.85	19.7	5.27	18.8	3.87	13.5	10.4	41.4	6.71	23.5	4	14.7	3.45	24.2	4.68	20
COc1cc2c(c(OC)c1OC)-c1ccc(SC)c(=O)cc1C(NC=O)CC2 (centres undefined)	–	> 77.2	–	> 100	–	> 100	–	> 41.1	–	> 21.5	–	> 84.8	–	< 0.01	–	< 0.0464	–	0.0492	–	–
Cc1ccc(NC(=O)CC2CC2)cc1-c1ccc(C(=O)NCC2CC2)cc1	> 14.1	> 25	> 25	> 25	> 25	> 25	> 25	> 25	> 25	> 25	> 25	> 25	> 25	> 25	> 25	> 25	> 24.2	> 25	> 25	> 25
CS(=O)(=O)CCNCc1nc(-c2ccc3ncnc(Nc4ccc(OCc5cccc(C(F)(F)F)c5)cc4)c3c2)cs1	> 25	> 25	12.8	> 25	> 20.6	> 25	> 25	> 25	> 25	> 25	> 25	> 25	> 17.7	> 25	> 25	> 25	> 25	> 25	> 18.7	> 25
COc1cc(-n2cc(-c3ccc(F)cc3)[nH]c2=O)cc(OC)c1OC	> 100	> 100	> 100	> 100	> 100	> 100	> 100	> 100	–	–	> 100	> 100	> 100	> 100	> 100	> 100	> 100	> 100	> 100	> 100
COc1cc(F)ccc1-c1ncnc(Nc2cccc(CS(C)(=N)=O)c2)n1 (centres undefined)	3.78	> 100	0.707	> 100	1.05	> 100	0.373	> 100	2.25	> 100	–	–	0.784	> 100	0.385	2.94	0.392	3.14	0.421	> 100
O=C(CC1(O)C(=O)N(Cc2ccccc2)c2ccc(F)cc21)c1ccc(C(=O)NCC2CCC3(CC2)OOC2(CCCCC2)OO3)cc1 (centres undefined)	–	–	1.31	3.22	4.38	> 84.7	0.0771	0.222	2.02	6.63	4.78	31.7	0.187	0.335	0.21	0.541	0.349	0.999	1.36	3.29
COc1ccc2c(c1)C(=O)c1c-2c(N2CCN(C(=O)CNCCNCCO)CC2)nc2ccccc12	2.85	11.9	2.97	9.38	2.02	3.54	2.18	4.72	1.82	3.33	2.83	6.4	6.17	18.4	3.08	10.6	–	–	1.59	3.07
C=C(C)[C@@H]1CC[C@]2(C)[C@H](CC=C3[C@@H]4CC(C)(C)CC[C@]4(C(N)=O)CC[C@]32C)[C@@]1(C)CCC#N	2.54	> 100	5.28	> 100	4.17	> 100	3.69	> 100	3.11	> 100	4.09	> 100	4.8	> 100	3.04	13.6	–	–	–	–
COc1cc2c3c(n(C)c(=O)c2cc1OC)-c1cc2c(cc1/C3=C\CN)OCO2	0.106	–	0.433	> 79.2	7.38	> 48.5	0.133	1.46	–	–	1.44	20.4	0.346	37.1	0.227	–	0.294	> 100	0.0713	0.437

Source: PubChem BioAssay (NCI)
